Laboratory results published in PubChem BioAssay AID248 (DTP/NCI, 2004).
Values joined by “and” are separate entries in the source; they are usually repeats but may differ in a detail not shown here. Equal values may be shown once. Inconclusive results and toxic doses are left out. Rule as the data show it: active = T/C of 150% or more; inactive = T/C below 125%.

System: L1210 leukemia ip in BDF1 mice, survival T/C
Test: NCI In Vivo Anticancer Drug Screen. Data for tumor model L1210 Leukemia (intraperitoneal) in B6D2F1 (BDF1) mice
Settings: endpoint: mean survival time, higher = longer survival
Procedure, shortened: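 Ratio derived from survival: compound-dosed mice over vehicle-dosed mice, all bearing a transplantable tumor.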

[1] = dose: 100.0 mg/kg/injection, schedule: Q01DX009 (ip), vehicle: Klucel (hydroxypropylcellulose) (HPC)
[2] = dose: 100.0 mg/kg/injection, schedule: Q04DX002 (ip), vehicle: Klucel (hydroxypropylcellulose) (HPC)
[3] = dose: 100.0 mg/kg/injection, schedule: Q04DX003 (ip), vehicle: Klucel (hydroxypropylcellulose) (HPC)
[4] = dose: 200.0 mg/kg/injection, schedule: Q01DX009 (ip), vehicle: Klucel (hydroxypropylcellulose) (HPC)
[5] = dose: 200.0 mg/kg/injection, schedule: Q04DX003 (ip), vehicle: Klucel (hydroxypropylcellulose) (HPC)
[6] = dose: 400.0 mg/kg/injection, schedule: Q01DX009 (ip), vehicle: Klucel (hydroxypropylcellulose) (HPC)
[7] = dose: 400.0 mg/kg/injection, schedule: Q04DX003 (ip), vehicle: Klucel (hydroxypropylcellulose) (HPC)

Measured: T/C

CCCCCCCCCCCC[N+](C)(C)C
inactive: dose: 10.0 mg/kg/injection, schedule: Q01DX009 (ip), vehicle: saline 104 % of control | dose: 20.0 mg/kg/injection, schedule: Q01DX009 (ip), vehicle: saline 105 % of control

O=C(O)c1ncn[nH]1
inactive: [1] 95 % of control | [2] 89 % of control | [3] 101 % of control | [4] 100 % of control | dose: 200.0 mg/kg/injection, schedule: Q04DX002 (ip), vehicle: Klucel (hydroxypropylcellulose) (HPC) 115 % of control | [5] 95 % of control | [6] 100 % of control | dose: 400.0 mg/kg/injection, schedule: Q04DX002 (ip), vehicle: Klucel (hydroxypropylcellulose) (HPC) 89 % of control | [7] 108 % of control

O=P(c1ccccc1)(N1CC1)N1CC1
inactive: dose: 7.5 mg/kg/injection, schedule: Q04DX003 (ip), vehicle: saline 100 % of control | dose: 15.0 mg/kg/injection, schedule: Q01DX001 (ip), vehicle: saline 102 % of control | dose: 15.0 mg/kg/injection, schedule: Q04DX003 (ip), vehicle: saline 95 % of control | dose: 30.0 mg/kg/injection, schedule: Q01DX001 (ip), vehicle: saline 107 % of control | dose: 30.0 mg/kg/injection, schedule: Q04DX003 (ip), vehicle: saline 98 % of control

O=C(OCc1ccccc1)C(=O)OCc1ccccc1
inactive: [1] 90 % of control | [3] 95 % of control | [4] 103 % of control | [5] 100 % of control | [7] 100 % of control

CC1CN(C(=S)Nc2cccc3ccccc23)CC(C)O1 (centres undefined)
inactive: [1] 100 % of control | [4] 97 % of control | [6] 95 % of control

CCOc1cc[n+](C)c2ccc(C)cc12
inactive: dose: 6.25 mg/kg/injection, schedule: Q04DX002 (ip), vehicle: saline with Tween-80 102 % of control | dose: 12.5 mg/kg/injection, schedule: Q04DX002 (ip), vehicle: saline with Tween-80 98 % of control

COC(=O)C1ON(C(=O)c2ccccc2)C(C)C2OC12 (centres undefined)
inactive: [3] 103 % of control | [5] 100 % of control | [7] 96 % of control

NC(=S)Nc1c(Cl)cc(Cl)cc1Cl
inactive: dose: 25.0 mg/kg/injection, schedule: Q01DX009 (ip), vehicle: Klucel (hydroxypropylcellulose) (HPC) 94 % of control | dose: 50.0 mg/kg/injection, schedule: Q01DX009 (ip), vehicle: Klucel (hydroxypropylcellulose) (HPC) 108 % of control | [1] 94 % of control and 107 % of control

c1ccc2c[n+](CCc3c[nH]c4ccccc34)ccc2c1
inactive: [2] 100 % of control | [3] 96 % of control | [5] 104 % of control

NCC(=O)Oc1c(Cl)c(Cl)c(Cl)c(Cl)c1Cl
inactive: dose: 75.0 mg/kg/injection, schedule: Q01DX001 (ip), vehicle: saline 104 % of control

CC12CC3CC(C)(C1)CC(N)(C3)C2
inactive: dose: 50.0 mg/kg/injection, schedule: Q01DX001 (ip), vehicle: carboxymethylcellulose (CMC) 98 % of control

C=C[CH2][Sn]([CH2]C=C)([c]1ccccc1)[c]1ccccc1
inactive: dose: 1.56 mg/kg/injection, schedule: Q01DX009 (ip), vehicle: saline with Tween-80 97 % of control | dose: 3.13 mg/kg/injection, schedule: Q01DX009 (ip), vehicle: saline with Tween-80 92 % of control | dose: 6.25 mg/kg/injection, schedule: Q01DX009 (ip), vehicle: saline with Tween-80 86 % of control

C=CCNC(=O)Nc1cccc(O)c1
inactive: dose: 100.0 mg/kg/injection, schedule: Q04DX003 (ip), vehicle: saline with Tween-80 100 % of control | dose: 200.0 mg/kg/injection, schedule: Q04DX003 (ip), vehicle: saline with Tween-80 96 % of control | dose: 400.0 mg/kg/injection, schedule: Q04DX003 (ip), vehicle: saline with Tween-80 93 % of control

OC(c1ccccc1)C1CCCC1 (centres undefined)
inactive: dose: 50.0 mg/kg/injection, schedule: Q01DX009 (ip), vehicle: saline with Tween-80 90 % of control | dose: 100.0 mg/kg/injection, schedule: Q01DX009 (ip), vehicle: saline with Tween-80 93 % of control | dose: 200.0 mg/kg/injection, schedule: Q01DX009 (ip), vehicle: saline with Tween-80 90 % of control

CC(C)(CO)C(O)C(=O)NCCC(=O)c1ccccc1 (centres undefined)
inactive: dose: 100.0 mg/kg/injection, schedule: Q01DX001 (ip), vehicle: saline 103 % of control | dose: 200.0 mg/kg/injection, schedule: Q01DX001 (ip), vehicle: saline 92 % of control | dose: 400.0 mg/kg/injection, schedule: Q01DX001 (ip), vehicle: saline 103 % of control
